# Reference: ChEMBL document CHEMBL1275392, “Assessment of chemoselective neoglycosylation methods using chlorambucil as a model” (2010)
# Key:
# Type in all cases: functional
# ACHN = assay: Growth inhibition of human ACHN cells after 7 days by celltiter-glo assay; conditions: 168 h
# BT-549 = assay: Growth inhibition of human BT549 cells at 10 uM after 7 days by celltiter-glo assay; conditions: BT-549, 168 h, read-out: GI
# HOP-92 = assay: Growth inhibition of human HOP92 cells after 7 days by celltiter-glo assay; conditions: HOP-92, 168 h
# NCI/ADR-RES [1] = assay: Growth inhibition of human NCI/ADR-RES cells after 7 days by celltiter-glo assay; conditions: 168 h
# COLO 205 [2] = assay: Growth inhibition of human COLO205 cells after 7 days by celltiter-glo assay; conditions: COLO 205, 168 h
# T47D = assay: Growth inhibition of human T47D cells at 10 uM after 7 days by celltiter-glo assay; conditions: 168 h, read-out: GI
# OVCAR-4 = assay: Growth inhibition of human OVCAR4 cells at 10 uM after 7 days by celltiter-glo assay; conditions: OVCAR-4, 168 h, read-out: GI
# NCI-H322M = assay: Growth inhibition of human NCI-H322M cells after 7 days by celltiter-glo assay; conditions: 168 h
# CAKI-1 = assay: Growth inhibition of human Caki1 cells after 7 days by celltiter-glo assay; conditions: CAKI-1, 168 h
# HT-29 [3] = assay: Growth inhibition of human HT-29 cells after 7 days by celltiter-glo assay; conditions: HT-29, 168 h
# HOP-62 = assay: Growth inhibition of human HOP62 cells at 10 uM after 7 days by celltiter-glo assay; conditions: HOP-62, 168 h, read-out: GI
# IGROV-1 = assay: Growth inhibition of human IGROV1 cells after 7 days by celltiter-glo assay; conditions: IGROV-1, 168 h
# PC-3 = assay: Growth inhibition of human PC3 cells at 10 uM after 7 days by celltiter-glo assay; conditions: PC-3, 168 h, read-out: GI
# OVCAR-3 = assay: Growth inhibition of human OVCAR-3 cells after 7 days by celltiter-glo assay; conditions: OVCAR-3, 168 h
# A549 = assay: Growth inhibition of human A549 cells at 10 uM after 7 days by celltiter-glo assay; conditions: A549, 168 h, read-out: GI
# HL-60(TB) = assay: Growth inhibition of human HL-60(TB) cells after 7 days by celltiter-glo assay; conditions: HL-60, 168 h
# NCI-H23 = assay: Growth inhibition of human NCI-H23 cells after 7 days by celltiter-glo assay; conditions: NCI-H23, 168 h
# SK-MEL-5 = assay: Growth inhibition of human SK-MEL-5 cells after 7 days by celltiter-glo assay; conditions: SK-MEL-5, 168 h
# A498 = assay: Growth inhibition of human A498 cells after 7 days by celltiter-glo assay; conditions: A498, 168 h
# NCI-H226 = assay: Growth inhibition of human NCI-H226 cells at 10 uM after 7 days by celltiter-glo assay; conditions: NCI-H226, 168 h, read-out: GI
# KM12 = assay: Growth inhibition of human KM12 cells at 10 uM after 7 days by celltiter-glo assay; conditions: KM12, 168 h, read-out: GI
# HT-29 [4] = assay: Growth inhibition of human HT-29 cells at 10 uM after 7 days by celltiter-glo assay; conditions: HT-29, 168 h, read-out: GI
# SN12C = assay: Growth inhibition of human SN12C cells at 10 uM after 7 days by celltiter-glo assay; conditions: 168 h, read-out: GI
# COLO 205 [5] = assay: Growth inhibition of human COLO205 cells at 10 uM after 7 days by celltiter-glo assay; conditions: COLO 205, 168 h, read-out: GI
# NCI/ADR-RES [6] = assay: Growth inhibition of human NCI/ADR-RES cells at 10 uM after 7 days by celltiter-glo assay; conditions: 168 h, read-out: GI
# TK-10 = assay: Growth inhibition of human TK10 cells after 7 days by celltiter-glo assay; conditions: TK-10, 168 h
smiles,measurement,setting,value
CON(CCCc1ccc(N(CCCl)CCCl)cc1)C1OC[C@@H](O)[C@@H]1O (stereo partly specified),GI50,ACHN,4.34 µM
same,inhibition of growth at 10 µM,BT-549,38.5%
same,GI50,HOP-92,4.03 µM
same,GI50,NCI/ADR-RES [1],4.61 µM
same,GI50,COLO 205 [2],12.7 µM
same,inhibition of growth at 10 µM,T47D,48%
same,inhibition of growth at 10 µM,OVCAR-4,77.2%
same,GI50,NCI-H322M,> 100 µM
same,GI50,CAKI-1,11.5 µM
same,GI50,HT-29 [3],0.41 µM
same,inhibition of growth at 10 µM,HOP-62,73.2%
same,GI50,IGROV-1,1.21 µM
same,inhibition of growth at 10 µM,PC-3,72.5%
same,GI50,OVCAR-3,15.3 µM
same,inhibition of growth at 10 µM,A549,69.7%
same,GI50,HL-60(TB),1.88 µM
same,GI50,NCI-H23,7.15 µM
same,GI50,SK-MEL-5,17.7 µM
same,GI50,A498,21.8 µM
same,inhibition of growth at 10 µM,NCI-H226,84.2%
same,inhibition of growth at 10 µM,KM12,97.6%
same,inhibition of growth at 10 µM,HT-29 [4],70.7%
same,inhibition of growth at 10 µM,SN12C,54.2%
same,inhibition of growth at 10 µM,COLO 205 [5],93.3%
same,inhibition of growth at 10 µM,NCI/ADR-RES [6],61.5%
same,GI50,TK-10,31.7 µM
